Legend:
Caspase-6 = molecular target: T1, Caspase-6 (Homo sapiens, UniProt P55212); test: Inhibition of caspase-6 (unknown origin)
T1 sequence (P55212 whole entry): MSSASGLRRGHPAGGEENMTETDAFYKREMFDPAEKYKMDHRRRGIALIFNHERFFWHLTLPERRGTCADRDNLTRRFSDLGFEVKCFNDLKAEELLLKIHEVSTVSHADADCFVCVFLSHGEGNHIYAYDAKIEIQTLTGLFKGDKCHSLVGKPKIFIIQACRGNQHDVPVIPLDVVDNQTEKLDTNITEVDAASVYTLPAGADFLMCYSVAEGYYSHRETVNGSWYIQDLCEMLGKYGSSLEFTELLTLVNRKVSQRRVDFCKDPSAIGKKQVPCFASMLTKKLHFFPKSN

Caspase-8 = Caspase-8 (Homo sapiens, UniProt Q14790); test: Inhibition of caspase-8 (unknown origin)
Caspase-2 = molecular target: T2, Caspase-2 (Homo sapiens, UniProt P42575); test: Inhibition of caspase-2 (unknown origin)
T2 sequence (P42575 whole entry): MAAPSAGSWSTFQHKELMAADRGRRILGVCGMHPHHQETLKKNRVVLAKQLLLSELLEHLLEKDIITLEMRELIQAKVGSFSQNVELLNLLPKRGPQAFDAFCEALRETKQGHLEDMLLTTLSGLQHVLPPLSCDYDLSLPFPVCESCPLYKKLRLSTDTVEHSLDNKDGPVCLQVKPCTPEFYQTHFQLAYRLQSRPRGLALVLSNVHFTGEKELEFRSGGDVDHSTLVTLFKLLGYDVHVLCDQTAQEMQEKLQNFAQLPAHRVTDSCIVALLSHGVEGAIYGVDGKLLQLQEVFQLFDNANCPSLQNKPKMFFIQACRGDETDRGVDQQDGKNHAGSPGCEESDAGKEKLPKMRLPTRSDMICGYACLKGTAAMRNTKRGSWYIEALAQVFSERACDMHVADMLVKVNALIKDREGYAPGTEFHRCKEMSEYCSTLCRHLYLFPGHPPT

Caspase-5 = molecular target: T3, Caspase-5 (Homo sapiens, UniProt P51878); test: Inhibition of caspase-5 (unknown origin)
T3 sequence (P51878 whole entry): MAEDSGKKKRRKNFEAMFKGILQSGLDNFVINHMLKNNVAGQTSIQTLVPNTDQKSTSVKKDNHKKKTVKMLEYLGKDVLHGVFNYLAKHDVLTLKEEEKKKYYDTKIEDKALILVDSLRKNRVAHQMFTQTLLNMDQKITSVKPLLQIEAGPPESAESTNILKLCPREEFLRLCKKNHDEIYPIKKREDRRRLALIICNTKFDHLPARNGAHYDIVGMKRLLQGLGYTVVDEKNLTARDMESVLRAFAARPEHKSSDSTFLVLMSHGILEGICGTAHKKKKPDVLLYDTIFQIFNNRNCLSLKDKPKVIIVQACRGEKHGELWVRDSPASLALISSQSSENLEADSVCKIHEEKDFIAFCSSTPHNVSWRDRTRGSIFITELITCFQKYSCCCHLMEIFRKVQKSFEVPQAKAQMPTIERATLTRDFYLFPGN

Caspase-4 = molecular target: T4, Caspase-4 (Homo sapiens, UniProt P49662); test: Inhibition of caspase-4 (unknown origin)
T4 sequence (P49662 whole entry): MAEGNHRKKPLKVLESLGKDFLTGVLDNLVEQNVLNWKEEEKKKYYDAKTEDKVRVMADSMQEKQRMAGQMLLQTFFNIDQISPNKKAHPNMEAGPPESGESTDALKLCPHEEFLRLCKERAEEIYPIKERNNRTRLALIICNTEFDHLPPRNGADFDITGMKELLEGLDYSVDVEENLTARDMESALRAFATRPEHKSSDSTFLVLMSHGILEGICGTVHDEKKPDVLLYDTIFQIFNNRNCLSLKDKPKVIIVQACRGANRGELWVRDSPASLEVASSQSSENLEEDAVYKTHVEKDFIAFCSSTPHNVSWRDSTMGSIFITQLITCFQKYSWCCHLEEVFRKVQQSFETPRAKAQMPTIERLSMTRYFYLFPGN

Caspase-9 = molecular target: T5, Caspase-9 (Homo sapiens, UniProt P55211); test: Inhibition of caspase-9 (unknown origin)
T5 sequence (P55211 whole entry): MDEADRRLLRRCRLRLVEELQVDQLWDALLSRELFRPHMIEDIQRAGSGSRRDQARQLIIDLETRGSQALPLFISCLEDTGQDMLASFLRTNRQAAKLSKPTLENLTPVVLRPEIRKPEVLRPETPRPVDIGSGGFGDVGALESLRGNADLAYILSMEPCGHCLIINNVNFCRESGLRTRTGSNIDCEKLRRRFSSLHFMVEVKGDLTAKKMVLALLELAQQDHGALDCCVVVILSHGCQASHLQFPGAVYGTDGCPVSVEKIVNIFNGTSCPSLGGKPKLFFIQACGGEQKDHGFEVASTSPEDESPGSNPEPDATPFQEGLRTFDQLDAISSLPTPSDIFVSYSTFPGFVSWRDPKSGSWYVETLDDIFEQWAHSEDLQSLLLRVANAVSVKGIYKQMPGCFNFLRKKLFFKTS

Caspase-7 = molecular target: T6, Caspase-7 (Homo sapiens, UniProt P55210); test: Inhibition of caspase-7 (unknown origin)
T6 sequence (P55210 whole entry): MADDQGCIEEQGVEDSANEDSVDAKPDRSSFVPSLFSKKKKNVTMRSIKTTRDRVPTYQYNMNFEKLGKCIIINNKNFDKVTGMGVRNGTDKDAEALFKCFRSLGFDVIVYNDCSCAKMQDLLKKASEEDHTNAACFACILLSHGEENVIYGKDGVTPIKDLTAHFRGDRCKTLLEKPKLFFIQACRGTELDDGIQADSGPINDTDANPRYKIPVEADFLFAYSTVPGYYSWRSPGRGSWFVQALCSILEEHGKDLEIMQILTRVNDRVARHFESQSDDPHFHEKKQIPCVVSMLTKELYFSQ

Caspase-1 = molecular target: T7, Caspase-1 (Homo sapiens, UniProt P29466); test: Inhibition of caspase-1 (unknown origin)
T7 sequence (P29466 whole entry): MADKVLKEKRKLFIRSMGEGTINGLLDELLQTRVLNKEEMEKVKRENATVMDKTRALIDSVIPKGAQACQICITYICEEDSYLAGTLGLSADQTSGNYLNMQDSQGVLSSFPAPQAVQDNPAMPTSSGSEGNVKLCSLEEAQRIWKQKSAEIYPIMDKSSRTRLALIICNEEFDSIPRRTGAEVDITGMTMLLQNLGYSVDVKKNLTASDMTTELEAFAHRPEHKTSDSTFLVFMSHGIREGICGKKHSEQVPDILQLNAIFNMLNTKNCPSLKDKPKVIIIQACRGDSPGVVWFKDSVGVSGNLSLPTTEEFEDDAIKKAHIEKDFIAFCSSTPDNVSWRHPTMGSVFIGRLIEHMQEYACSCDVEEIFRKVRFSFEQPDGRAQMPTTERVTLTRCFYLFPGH

Caspase-3 = molecular target: T8, Caspase-3 (Homo sapiens, UniProt P42574); test: Inhibition of caspase-3 (unknown origin)
T8 sequence (P42574 whole entry): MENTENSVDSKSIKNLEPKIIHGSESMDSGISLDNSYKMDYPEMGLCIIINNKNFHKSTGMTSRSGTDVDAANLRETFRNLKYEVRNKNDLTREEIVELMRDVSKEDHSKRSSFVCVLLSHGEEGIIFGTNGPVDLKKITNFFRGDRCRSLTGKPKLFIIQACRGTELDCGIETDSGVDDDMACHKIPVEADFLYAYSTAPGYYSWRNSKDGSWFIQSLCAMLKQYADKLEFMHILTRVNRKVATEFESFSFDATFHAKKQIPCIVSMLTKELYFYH

Caspase-10 = molecular target: T9, Caspase-10 (Homo sapiens, UniProt Q92851); test: Inhibition of caspase-10 (unknown origin)
T9 sequence (Q92851 whole entry): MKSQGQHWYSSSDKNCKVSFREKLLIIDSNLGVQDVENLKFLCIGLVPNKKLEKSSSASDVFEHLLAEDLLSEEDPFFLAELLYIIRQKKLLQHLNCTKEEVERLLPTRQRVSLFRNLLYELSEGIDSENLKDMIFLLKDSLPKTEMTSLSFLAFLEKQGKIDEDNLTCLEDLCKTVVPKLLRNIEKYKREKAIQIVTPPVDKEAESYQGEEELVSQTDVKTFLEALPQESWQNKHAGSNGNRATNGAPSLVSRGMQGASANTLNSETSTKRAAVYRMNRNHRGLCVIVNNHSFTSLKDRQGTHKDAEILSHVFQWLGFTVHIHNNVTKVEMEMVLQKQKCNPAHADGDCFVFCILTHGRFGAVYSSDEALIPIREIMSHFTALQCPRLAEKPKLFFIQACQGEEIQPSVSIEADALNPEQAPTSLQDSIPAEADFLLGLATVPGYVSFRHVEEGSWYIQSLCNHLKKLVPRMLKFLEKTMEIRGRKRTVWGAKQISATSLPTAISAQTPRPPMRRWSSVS

Caspase-8, sequence (Q14790 217-374 limits assumed): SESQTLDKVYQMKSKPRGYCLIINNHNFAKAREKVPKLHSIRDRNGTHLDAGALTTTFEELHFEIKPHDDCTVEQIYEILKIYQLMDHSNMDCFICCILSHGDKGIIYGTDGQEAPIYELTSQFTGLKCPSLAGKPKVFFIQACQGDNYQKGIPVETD
Caspase-8, sequence (Q14790 385-479 limits assumed): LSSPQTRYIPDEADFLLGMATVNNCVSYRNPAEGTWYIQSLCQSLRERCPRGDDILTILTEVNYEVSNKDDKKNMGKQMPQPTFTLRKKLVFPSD

Compound | IC50 (Caspase-6) [µM] | IC50 (Caspase-8) [µM] | IC50 (Caspase-2) [µM] | IC50 (Caspase-5) [µM] | IC50 (Caspase-4) [µM] | IC50 (Caspase-9) [µM] | IC50 (Caspase-7) [µM] | IC50 (Caspase-1) [µM] | IC50 (Caspase-3) [µM] | IC50 (Caspase-10) [µM]
CC[C@H](C)[C@H](NC(=O)[C@H](CCC(N)=O)NC(=O)[C@@H](NC(=O)OCc1ccccc1)C(C)C)C(=O)N[C@H](/C=C/S(C)(=O)=O)CC(=O)O | 0.6 | 0.6 | > 100 | 19.5 | 0.37 | 0.8 | > 100 | 2.7 | 6.9 | 0.13
CC[C@H](C)[C@H](NC(=O)[C@H](CCC(N)=O)NC(=O)[C@H](Cc1c[nH]c2ccccc12)NC(=O)OCc1ccccc1)C(=O)N[C@H](/C=C/S(C)(=O)=O)CC(=O)O | 100 | 5.93 | > 100 | 0.75 | 0.18 | 1.74 | 23.7 | 0.026 | 6.5 | 3.3
CCOC(=O)/C=C/[C@H](CC(=O)O)NC(=O)[C@@H](NC(=O)[C@@H](NC(=O)[C@H](CC(=O)O)NC(=O)OCc1ccccc1)c1ccccc1)C(C)C | > 100 |  | > 100 | > 100 |  |  |  |  |  | 

Further lines, results first:

IC50 (Caspase-6) [µM] | IC50 (Caspase-8) [µM] | IC50 (Caspase-2) [µM] | IC50 (Caspase-5) [µM] | IC50 (Caspase-4) [µM] | IC50 (Caspase-9) [µM] | IC50 (Caspase-7) [µM] | IC50 (Caspase-1) [µM] | IC50 (Caspase-3) [µM] | IC50 (Caspase-10) [µM] | Compound
> 100 | 12.9 | > 100 | 0.56 | 0.09 | 2.3 | 24.5 | 0.02 | > 100 | 2.67 | CC(C)(C)[C@@H](NC(=O)c1ccc(N)c(Cl)c1)C(=O)N1CCC[C@H]1C(=O)N[C@H](/C=C/S(C)(=O)=O)CC(=O)O
> 100 | 4.1 | 13.1 | 35.2 | 5.6 | 1.1 | 0.5 | 13.2 | 0.28 | 0.42 | CC(C)(C)[C@H](NC(=O)[C@H](CC(=O)O)NC(=O)OCc1ccccc1)C(=O)N1CC[C@H]1C(=O)N[C@H](/C=C/S(C)(=O)=O)CC(=O)O
